Results taken from the supplement of paper PMC10307832.

Columns and labels:
Assay in all cases: relative viability (nuclei count vs DMSO), 5 days (fraction); higher = more cells survive
Adavosertib + Navitoclax = compound: C=CCn1c(=O)c2cnc(Nc3ccc(N4CCN(C)CC4)cc3)nc2n1-c1cccc(C(C)(C)O)n1 [Adavosertib] + CC1(C)CCC(c2ccc(Cl)cc2)=C(CN2CCN(c3ccc(C(=O)NS(=O)(=O)c4ccc(N[C@H](CCN5CCOCC5)CSc5ccccc5)c(S(=O)(=O)C(F)(F)F)c4)cc3)CC2)C1 [Navitoclax] (partner 0.5 µM)
Method in brief: (§1)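 Lung cancer cell lines in 1536-well plates got either a single drug or a fixed anchor-drug dose together with five library-drug doses (not always all listed) in √10 steps, by pin tool, on the day after seeding. Nuclei were counted after 5 days, and relative viability is the treated-to-vehicle ratio of nuclei counts. Values are medians of duplicate plates.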

Nelarabine + Phenformin = compound: COc1nc(N)nc2c1ncn2[C@@H]1O[C@H](CO)[C@@H](O)[C@@H]1O [Nelarabine] + N=C(N)NC(=N)NCCc1ccccc1 [Phenformin] (partner 250 µM)
Method in brief: as §1

Adavosertib = compound: C=CCn1c(=O)c2cnc(Nc3ccc(N4CCN(C)CC4)cc3)nc2n1-c1cccc(C(C)(C)O)n1 [Adavosertib]
Method in brief: (§2)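 In 1536-well plates, lung cancer cell lines rested overnight at 37 °C before five library-drug doses (not always all listed), √10 apart, were pinned onto vehicle-anchored plates. Nuclei were counted with MetaXpress from 4× Hoechst images taken after 5 days without medium change. Viability compares treated-well with vehicle-well nuclei as a median over plates, and plates needed control CV below 25% plus at least one doubling to pass.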

Nelarabine = compound: COc1nc(N)nc2c1ncn2[C@@H]1O[C@H](CO)[C@@H](O)[C@@H]1O [Nelarabine]
Method in brief: as §2

Cell Line | relative viability (Adavosertib + Navitoclax; first compound 0.01 µM) | relative viability (Adavosertib + Navitoclax; first compound 0.03162 µM) | relative viability (Adavosertib + Navitoclax; first compound 0.1 µM) | relative viability (Adavosertib + Navitoclax; first compound 0.3162 µM) | relative viability (Nelarabine + Phenformin; first compound 0.01 µM) | relative viability (Nelarabine + Phenformin; first compound 0.03162 µM) | relative viability (Nelarabine + Phenformin; first compound 0.1 µM) | relative viability (Nelarabine + Phenformin; first compound 0.3162 µM) | relative viability (Nelarabine + Phenformin; first compound 1 µM) | relative viability (Adavosertib; 0.01 µM) | relative viability (Adavosertib; 0.03162 µM) | relative viability (Adavosertib; 0.1 µM) | relative viability (Adavosertib; 0.3162 µM) | relative viability (Nelarabine; 0.01 µM) | relative viability (Nelarabine; 0.03162 µM) | relative viability (Nelarabine; 0.1 µM) | relative viability (Nelarabine; 0.3162 µM) | relative viability (Nelarabine; 1 µM)
HOP-62 | 1.12 | 1.16 | 1.4 | 1.35 | 0.787 | 0.508 | 0.696 | 0.777 | 0.667 | 1.03 | 1.1 | 1.08 | 1.18 | 1.02 | 1.02 | 1.06 | 1.01 | 1.01
NCI-H2405 | 0.869 | 1.01 | 0.98 | 0.996 | 0.385 | 0.395 | 0.357 | 0.383 | 0.26 | 0.924 | 0.993 | 1.02 | 1.04 | 1.07 | 1.02 | 0.924 | 0.982 | 0.947
HCC-78 | 0.81 | 0.686 | 0.894 | 0.79 | 0.709 | 0.684 |  | 0.709 | 0.701 | 0.85 | 0.973 | 1.03 | 1.04 | 1.01 | 0.942 |  | 1.05 | 0.932
SK-LU-1 | 0.759 | 0.594 | 0.989 | 0.238 | 0.564 | 0.364 | 0.553 | 0.679 | 0.499 | 1.1 | 1.04 | 0.886 | 0.488 | 1.35 | 0.885 | 1.1 | 1.2 | 1.18
NCI-H1915 | 0.831 | 0.766 | 0.804 | 0.786 | 0.378 | 0.315 | 0.367 | 0.371 | 0.367 | 0.999 | 1.01 | 1.06 | 0.996 | 1.15 | 1.03 | 1.02 | 1 | 1.05
NCI-H1666 | 0.927 | 0.83 | 0.935 | 0.673 | 0.576 | 0.607 | 0.569 | 0.536 | 0.606 | 0.975 | 1 | 1.05 | 0.997 | 1.05 | 1.15 | 0.978 | 0.97 | 0.967
NCI-H1650 | 1.15 | 1.26 | 1.25 | 1.1 | 0.39 | 0.427 | 0.379 | 0.436 | 0.445 | 0.867 | 0.981 | 0.943 | 0.472 | 1.13 | 0.999 | 0.845 | 0.978 | 0.928
NCI-H441 | 0.645 | 0.741 | 0.64 | 0.401 | 0.862 | 0.93 | 0.666 | 0.898 | 0.883 | 1.16 | 1.01 | 1.19 | 1.02 | 1.31 | 1.11 | 0.987 | 1.14 | 1.09
LC-2-ad | 0.452 | 0.411 | 0.392 | 0.216 | 0.618 | 0.613 | 0.637 | 0.54 | 0.536 | 0.979 | 1.02 | 1.01 | 1.13 | 1.14 | 1.05 | 0.984 | 1.05 | 0.989
NCI-H727 | 0.468 | 0.566 | 0.678 | 0.372 | 0.604 | 0.589 | 0.642 | 0.508 | 0.682 | 0.961 | 0.898 | 1.03 | 0.936 | 1.22 | 0.891 | 0.856 | 0.97 | 0.896
HCC-827 | 1.06 | 1.07 | 1.18 | 0.993 | 0.373 | 0.378 | 0.308 | 0.352 | 0.443 | 1.04 | 1.06 | 1.08 | 1.03 | 1.03 | 0.93 | 0.97 | 0.828 | 0.823
NCI-H2023 | 1.03 | 0.959 | 0.912 | 0.6 | 0.395 | 0.357 | 0.4 | 0.371 | 0.371 | 0.892 | 0.87 | 0.752 | 0.451 | 1.48 | 1.05 | 0.97 | 1.02 | 0.851
